Results from patent US20050267067A1, “Radical reaction inhibitors, method for inhibition of radical reactions, and use thereof” (priority 2002, published 2005).

Tests used:
[1] = Modification of L-lysine by lipid peroxides (protein carbonyl, OLAARPs); conditions: for OLAARPs Formation: (%) / Protein carbonyl Formation: (%): L-lysine, versus no saccharide; for Formed OLAARPs / Formed Protein carbonyl: 37° C., 24 hours
Description: (§1) In this experiment, saccharide solutions were prepared to give an equal total saccharide molar concentration in each solution.
(§2) As a negative control, PBS was used.
(§3) To five milliliters of either of the above saccharide solutions for testing or the negative control was added 10 mg of calf serum albumin (BSA) or L-lysine, followed by dissolving. To each of the resulting solutions was added 25 μg of 2,4-decadienal or malondialdehyde (MDA) as a lipid peroxide, followed by reaction at 37° C. for 24 hours. After completion of the reaction, protein carbonyl and reaction products of oxidized lipids/aminoacids (OLAARPs) formed as aldehyde adducts were quantified on the calorimetric method. […] The formation levels of protein carbonyl and OLAARPs were determined based on the absorbances obtained in this experiment, in terms of the molar absorbance coefficient for each molecule as disclosed in Biochim. Biophys. Acta, No. 1,258, pp. 319-327 (1985).
To each of the resulting mixtures was added 600 μl of 30% trichloroacetic acid, and the mixture was allowed to stand at 0° C. for one hour and centrifuged at 10,000 rpm for 15 min to obtain a precipitate, followed by washing the resulting precipitate four times with two milliliters of ethanol/ethylacetate (1:1), respectively, adding 1.5 ml of 6M-guanidine hydrochloride/20 mM-NaPi/TFA (pH 2.3) to the resultant, allowing the mixture to stand at 37° C. for 30 min, and measuring the absorbance of the resulting mixture at a wavelength of 580 nm, ε=35,000 M^−1 cm^−1. […] To any one of the resulting mixtures was added two milliliters of a 12.5 mM DNPH/2.5 N-hydrochloride solution, and the resulting mixture was allowed to stand at 45° C. for 30 min, followed by measuring the absorbance of the resulting mixture at a wavelength of 580 nm, E=35,000 M^−1 cm^−1.

calf serum albumin (BSA) = assay: Modification of BSA by lipid peroxides (protein carbonyl, OLAARPs); assay type: biochemical; conditions: for OLAARPs Formation: (%) / Protein carbonyl Formation: (%): BSA, versus no saccharide; for Formed OLAARPs / Formed Protein carbonyl: 37° C., 24 hours
Description: as §1, §2
as §3, with “Biophys.” for “Biophys. Acta, No. 1,258, pp. 319-327 (1985).”
To each of the resulting mixtures was added 600 μl of 30% trichloroacetic acid, and the mixture was allowed to stand at 0° C. for one hour and centrifuged at 10,000 rpm for 15 min to obtain a precipitate, followed by washing the resulting precipitate four times with two milliliters of ethanol/ethylacetate (1:1), respectively, adding 1.5 ml of 6M-guanidine hydrochloride/20 mM-NaPi/TFA (pH 2.3) to the resultant, allowing the mixture to stand at 37° C. for 30 min, and measuring the absorbance of the resulting mixture at a wavelength of 580 nm, ε=35,000 M^−1 cm^−1.

sucrase = assay: Sucrase activity of rat small intestinal mucosal enzyme solution after AAPH oxidation; assay type: biochemical
Description: One milliliter of the above rat small intestinal mucosal enzyme solution, one milliliter of a 100 mM AAPH solution, one milliliter of a 50 mM phosphate buffer (pH 7.2), and one milliliter of a 400 mM of the crystalline cyclotetrasaccharide pentahydrate prepared in Experiment 1-1 were mixed, incubated at 37° C. for two hours, and measured for the activities of sucrase and maltase.
After incubated at 37° C. for 30 min, the mixture was quantified for free glucose by the GOD method.

maltase = assay: Maltase activity of rat small intestinal mucosal enzyme solution after AAPH oxidation; assay type: biochemical
Description: One milliliter of the above rat small intestinal mucosal enzyme solution, one milliliter of a 100 mM AAPH solution, one milliliter of a 50 mM phosphate buffer (pH 7.2), and one milliliter of a 400 mM of the crystalline cyclotetrasaccharide pentahydrate prepared in Experiment 1-1 were mixed, incubated at 37° C. for two hours, and measured for the activities of sucrase and maltase. […] To a half milliliter of a maltose solution, which had been prepared by dissolving maltose in 50 mM sodium maleate (pH 6.6) to give a concentration of one percent (%), 0.05 ml of a AAPH-rat small intestinal mucosal enzyme solution. After incubated at 37° C. for 30 min, the mixture was quantified for free glucose by the GOD method. One unit (U) activity of maltase was defined as an enzyme amount that releases two micromoles of glucose per minutes from maltose at 37° C.

[2] = added lipid peroxide 2,4-decadienal
[3] = added lipid peroxide malondialdehyde (MDA)
[4] = enzyme solution incubated with AAPH at 37° C. for two hours, with or without cyclotetrasaccharide
[5] = versus system with no AAPH, 37° C., two hours

Row | Sucrase activity (sucrase; [4]) | Sucrase Relative residual activity (%) (sucrase; [5]) | Maltase activity (maltase; [4]) | Maltase Relative residual activity (%) (maltase; [5]) | SMILES | OLAARPs Formation: (%) ([1]; 2,4-decadienal) | Protein carbonyl Formation: (%) ([1]; 2,4-decadienal) | OLAARPs Formation: (%) ([1]; MDA) | Protein carbonyl Formation: (%) ([1]; MDA) | Formed OLAARPs [1, 2] | Formed Protein carbonyl [1, 2] | Formed OLAARPs [1, 3] | Formed Protein carbonyl [1, 3] | OLAARPs Formation: (%) (calf serum albumin (BSA); 2,4-decadienal) | Protein carbonyl Formation: (%) (calf serum albumin (BSA); 2,4-decadienal) | OLAARPs Formation: (%) (calf serum albumin (BSA); MDA) | Protein carbonyl Formation: (%) (calf serum albumin (BSA); MDA) | Formed OLAARPs (calf serum albumin (BSA); [2]) | Formed Protein carbonyl (calf serum albumin (BSA); [2]) | Formed OLAARPs (calf serum albumin (BSA); [3]) | Formed Protein carbonyl (calf serum albumin (BSA); [3])
1 | – | – | – | – | OC[C@@H](O)[C@@H](O[C@H]1O[C@H](CO)[C@@H](O)[C@H](O)[C@H]1O)[C@H](O)[C@@H](O)CO [Maltitol, maltitol] | (73) % | (51) % | (84) % | (55) % | 5.90 μmol/g-L-lysine | 6.81 μmol/g-L-lysine | 7.23 μmol/g-L-lysine | 3.29 μmol/g-L-lysine | (67) % | (53) % | (48) % | (53) % | 2.83 μmol/g-BSA | 7.51 μmol/g-BSA | 2.78 μmol/g-BSA | 1.29 μmol/g-BSA
2 | 0.0042 u/mg-protein | (29) % | 0.0555 u/mg-protein | (71) % | CC(C)(N=NC(C)(C)C(=N)N)C(=N)N.Cl.Cl [AAPH, 2,2′-azo-bis(2-amidinopropane)dihydrochloride, reference compound] | – | – | – | – | – | – | – | – | – | – | – | – | – | – | – | –
3 | – | – | – | – | OC[C@H]1O[C@@](CO)(O[C@H]2O[C@H](CO)[C@@H](O)[C@H](O)[C@H]2O)[C@@H](O)[C@@H]1O [Sucrose, sucrose] | (93) % | (81) % | (94) % | (96) % | 7.54 μmol/g-L-lysine | 10.92 μmol/g-L-lysine | 8.13 μmol/g-L-lysine | 5.75 μmol/g-L-lysine | – | – | – | – | – | – | – | –
